Patent US8536196B2, “Substituted 1,3-dioxanes useful as PPAR modulators” (Evolva SA, priority 2007, dated 2013)
One block for each molecule: values may come before it.

What was measured:
MEFs / 3T3-L1 = assay: Adipocyte differentiation induction assay (Oil Red O staining); type: cell-based, mouse; design: key to Adip. (adipocyte differentiation): 0: similar results to DPD; −1: even less adipocyte differentiation; +1: more adipocyte differentiation (both relative to DPD); details: relative to DPD (SN1)
Description: This example describes an assay for determining adipocyte differention. Compounds are tested to see whether they induce adipocyte differentiation and also to see whether they inhibit adipocyte differention.
MEFs were grown in AmnioMax basal medium (Gibco) supplemented with 7.5% Amniomax supplement C-100 (Gibco), 7.5% Fetal Bovine Serum (FBS), 2 mM Glutamine, 62.5 μg/ml penicillin and 100 μg/ml Streptomycin (growth medium). At confluence, MEFs were induced to differentiation in growth medium with the addition of 1 μM dexamethasone (Sigma) 0.5 mM isobutylmethylxanthine (Sigma), 5 μg/ml insulin (Sigma) and 10 μM test compound dissolved in DMSO or DMSO alone. Medium was subsequently renewed every 48 hrs with growth media supplemented with 5 μg/ml Insulin and ligand or DMSO.
Briefly, to test compounds as inducers of adipocyte differentiation, 3T3-L1 are grown to confluence in DMEM with 10% Calf serum (CS), typically in 24 well dishes. At 2 days post confluence (day 0), cells are induced to differentiate with DMEM supplemented with 10% fetal bovine serum (FBS), 1 μM dexamethasone and the test compound (01, 1 and 10 μM). BRL49653 (1.0 μM dissolved in 100% DMSO) is used as a positive control. After 48 h, the cells are re-fed with DMEM containing 10% FBS supplemented with the test compound or the positive control. From day 4, cells are grown in DMEM with 10% FBS and are changed every second day until day 8. At day 8, cells are stained with Oil Red O as described below.
Cells cultured as described above are used for Oil Red staining. Dishes are washed in PBS and cells were fixed in 3.7% paraformaldehyde for 1 h and stained with oil red O as described in (Hansen et al 1999). Oil red O solution stock solution is prepared by dissolving 0.5 g of Oil Red O (Sigma) in 100 mL of isopropanol. Oil re 0 working solution is prepared by diluting a stock solution with water (6:4) followed by filtration.
Table II summarizes results obtained with different analogs of DPD (SN1), “0” representing similar results to DPD, “−1” representing even less adipocyte differentiation, “+1” representing more adipocyte differentiation (both relative to DPD) and “−” meaning not assayed.

[1] = Blood cell analysis at end of thrombosis experiment; type: in vivo, mouse
Description: (§1) The flow in each image is expressed as a percentage of that at the contralateral side, and data are averaged for all 120 images to determine total flow. The same analysis is performed for 10 min intervals (which gives essentially the same information as the area under the curve). […] Flow before treatment is recorded as 100%, and that in occluded arteries as 0%. At the end of the experiment, blood is collected on 0.01M citrate by heart puncture for determination of blood cell counts. Plasma is prepared by centrifugation and stored at −20° C. for determination of drug levels.
Table VI summarizes the results of blood cell analysis performed on a sample taken at the end of the observation period. (Z)-6-((2S,4S,5R)-2-(2-chlorophenyl)-4-(2-hydroxyphenyl)-1,3-dioxan-5-yl)hex-4-enoic is referred to in Table VI as EV.

[2] = test system: mice (FeCl3 induced femoral artery thrombosis); assay: FeCl3 arterial thrombosis mouse model (occlusion time, blood flow); type: in vivo
Description: The solutions were diluted 3.3-fold in saline and 100 μl/25 g was injected.
During the experiments, a soluble potassium salt of the drug was provided, diluted in saline. Of this formulation, 100 μl/25 g was injected i.v. in the tail vein (dose of 100 mg/kg).
Aspirin is given the same way at a dose of 200 mg/kg. Clopidogrel is administered by oral gavage at a dose of 20 mg/kg at 6-7 hours prior to the experiment. The solutions were coded (except for clopidogrel) and the operator was blinded to the code. The animals assigned to each group were matched for body weight. All mice used were 8-10 weeks old males and were in a 100% Swiss genetic background.
as §1
Statistical analysis for differences between two groups is performed by non-parametric Student t-test. Occlusion times >30 min were considered equal to 30 min for statistical analysis. It should be noted that this approach may result in a statistical bias, the more so because the number of experiments is not the same in the different groups. Significance is set at p<0.05.

[3] = Clopidogrel 20 mg/kg oral gavage, n = 6, mean ± SEM
[4] = Aspirin 200 mg/kg i.v., n = 7, mean ± SEM

Structure (SMILES): O=C(O)CC/C=C\C[C@@H]1COC2(CCCCC2)O[C@@H]1c1ccccc1O [compound 6]
Adip. (adipocyte differentiation) (MEFs / 3T3-L1): 0

Structure (SMILES): O=C(O)CC/C=C\C[C@@H]1CO[C@H](c2ccccc2Cl)O[C@@H]1c1ccccc1O [compound 1]
Adip. (adipocyte differentiation) (MEFs / 3T3-L1): 0

Structure (SMILES): O=C(O)CC/C=C\C[C@@H]1CO[C@H](C2CCCCC2)O[C@@H]1c1ccccc1O [compound 21]
Adip. (adipocyte differentiation) (MEFs / 3T3-L1): 0

Structure (SMILES): O=C(O)CC/C=C\C[C@@H]1COC(c2cccc(Cl)c2Cl)O[C@@H]1c1ccccc1O (some centres unmarked) [compound 2]
Adip. (adipocyte differentiation) (MEFs / 3T3-L1): 0

Structure (SMILES): CCCCCC1OC[C@@H](C/C=C\CCC(=O)O)[C@@H](c2ccccc2O)O1 (some centres unmarked) [compound 11]
Adip. (adipocyte differentiation) (MEFs / 3T3-L1): +1

Hematocrit [1, 3]: 72 ± 2.7% | Hemoglobin [1, 3]: 15 ± 0.60 g/dL | Lymphocytes [1, 3]: 47 ± 7.8% | Neutrophils [1, 3]: 50 ± 7.2% | Platelets [1, 3]: 1060 ± 106 ×10^3/μl | Red blood cells [1, 3]: 9.0 ± 0.36 ×10^6/μl | White blood cells [1, 3]: 0.62 ± 0.22 ×10^3/μl
Structure (SMILES): COC(=O)[C@H](c1ccccc1Cl)N1CCc2sccc2C1 [Clopidogrel, reference compound]
occlusion ([2]; 20 mg/kg oral gavage 6-7 hours prior to the experiment, 30 min observation): totally prevents occlusion within 30 min in 6/7 experiments | total blood flow ([2]; 20 mg/kg oral gavage, versus vehicle): significantly improved total blood flow

Structure (SMILES): COc1cccc([C@H]2OC[C@@H](C/C=C\CCC(=O)O)[C@@H](c3ccccc3O)O2)c1OC [compound 19]
Adip. (adipocyte differentiation) (MEFs / 3T3-L1): 0

Structure (SMILES): O=C([O-])CC/C=C\C[C@@H]1CO[C@H](c2ccccc2Cl)O[C@@H]1c1ccccc1O.[K+] [(Z)-6-((2S,4S,5R)-2-(2-chlorophenyl)-4-(2-hydroxyphenyl)-1,3-dioxan-5-yl(hex-4-enoic potassium]
blood flow, time window 0-10 min ([2]; 100 mg/kg in saline i.v.): significantly higher blood flow as compared to either saline alone (p=0.009) or to aspirin (p=0.0006) | occlusion time ([2]; 100 mg/kg in saline i.v.): prolonged the occlusion time | total blood flow ([2]; 100 mg/kg in saline i.v.): significantly improved total blood flow as compared to either saline (p=0.0032) or aspirin (p=0.0021)

Structure (SMILES): COc1ccccc1[C@@H]1O[C@H](c2ccccc2Cl)OC[C@@H]1C/C=C\CCC(=O)O [Compound 4, (Z)-6-((2R,4R,5S)-2-(2-chlorophenyl)-4-(2-methoxyphenyl)-1,3-dioxan-5-yl)hex-4-enoic acid]
Adip. (adipocyte differentiation) (MEFs / 3T3-L1): 0

Structure (SMILES): O=C(O)CC/C=C\C[C@@H]1COC(c2cccc3ccccc23)O[C@@H]1c1ccccc1O (some centres unmarked) [compound 9]
Adip. (adipocyte differentiation) (MEFs / 3T3-L1): 0

Structure (SMILES): O=C(O)CCC/C=C\C[C@@H]1CO[C@H](c2ccccc2Cl)O[C@@H]1c1ccccc1O [compound 23]
Adip. (adipocyte differentiation) (MEFs / 3T3-L1): +1

Structure (SMILES): COc1ccccc1[C@H]1OC[C@@H](C/C=C\CCC(=O)O)[C@@H](c2ccccc2O)O1 [compound 18]
Adip. (adipocyte differentiation) (MEFs / 3T3-L1): −1

Structure (SMILES): CC(C)[C@H]1OC[C@@H](C/C=C\CCC(=O)O)[C@@H](c2ccccc2O)O1 [compound 20]
Adip. (adipocyte differentiation) (MEFs / 3T3-L1): 0

Structure (SMILES): O=C(O)CCCCCCC[C@@H]1CO[C@H](c2ccccc2Cl)O[C@@H]1c1ccccc1O [compound 31]
Adip. (adipocyte differentiation) (MEFs / 3T3-L1): 0

Hematocrit [1, 4]: 72 ± 0.60% | Hemoglobin [1, 4]: 15 ± 0.19 g/dL | Lymphocytes [1, 4]: 60 ± 11% | Neutrophils [1, 4]: 39 ± 11% | Platelets [1, 4]: 1020 ± 59 ×10^3/μl | Red blood cells [1, 4]: 9.3 ± 0.10 ×10^6/μl | White blood cells [1, 4]: 1.4 ± 0.42 ×10^3/μl
Structure (SMILES): CC(=O)Oc1ccccc1C(=O)O [Aspirin, reference compound]
occlusion time ([2]; 200 mg/kg i.v. in the tail vein): no effect | total blood flow ([2]; 200 mg/kg i.v., versus vehicle): no significant effect

Structure (SMILES): COc1ccccc1[C@H]1O[C@@H](c2ccccc2Cl)OC[C@H]1C/C=C\CCC(=O)O [Compound 5, (Z)-6-((2S,4S,5R)-2-(2-chlorophenyl)-4-(2-methoxyphenyl)-1,3-dioxan-5-yl)hex-4-enoic acid]
Adip. (adipocyte differentiation) (MEFs / 3T3-L1): 0

Structure (SMILES): C/C=C/CC1OC[C@@H](C/C=C\CCC(=O)O)[C@@H](c2ccccc2O)O1 (some centres unmarked) [compound 12]
Adip. (adipocyte differentiation) (MEFs / 3T3-L1): −1
